Series [1] can be described thus: Cell viability: resazurin assay. It counts as cell-based, human. To be noted: human, BEAS2B cells; n = 1-5. As to the method:
(§1) BEAS2B cells were seeded in 384-well plates (100 μL; 3000/well/; BD Falcon, Catalogue No 353962) in RPMI-LHC8 (RPMI-1640 and LHC8 media combined in equal proportions) one day before experimentation. For cell-free control wells, RPMI-LHC8 (100 μL) was added. Test compounds (0.5 μL of a DMSO solution) were added to give a final DMSO concentration of 0.5% using an Integra VIAFLO 96 (Integra, Zizers, Switzerland). BEAS2B cells were incubated with each test compound for 1 day (37° C./5% CO2 in RPMI-LHC8). After addition of resazurin stock solution (5 μL, 0.04%) the plates were incubated for a further 4 hr (37° C./5% CO2). The fluorescence of each well at 545 nm (excitation) and 590 nm (emission) was determined using a multi-scanner (Clariostar: BMG Labtech). The percentage loss of cell viability was calculated for each well relative to vehicle (0.5% DMSO) treatment. Where appropriate, a CC50 value was calculated from the concentration-response curve generated from the concentration-response curve for each test compound.

The subject of the next series is Aspergillus fumigatus. Briefly: Aspergillus fumigatus infection of BEAS2B bronchial epithelial cells (GM in supernatant). The class given is cell-based. The protocol:
BEAS2B cells were seeded in 96-well plates (100 μL; 30,000 cells/well; Catalogue No 3596, Sigma Aldrich, Dorset, UK) in 10% FBS RPMI-1640 and were then incubated (37° C., 5% CO2) for one day before experimentation. Test compounds (0.5 μL DMSO solution) or vehicle (DMSO) were added to each well to give a final DMSO concentration of 0.5%. BEAS2B cells were incubated with test compounds for 1 hr (35° C., 5% CO2) before infection with Aspergillus fumigatus (20 μL; Public Health England) conidia suspension (0.5×10^5/ml in 10% FBS RPMI-1640). The plate was incubated for 24 hr (35° C., 5% CO2). Supernatant (50 μL) was collected and transferred to a PCR plate (Catalogue No L1402-9700, Starlab, Milton Keynes, UK), which was frozen (−20° C.) until use. After thawing, supernatant (5 μL) was diluted 1:20 by adding R7-PBS solution (95 μL; 1:4 R7 to PBS; Bio-Rad Laboratories, Redmond, Wash., USA). GM levels in these samples (50 μL) were measured using Platelia GM-EIA kits (Bio-Rad Laboratories, Redmond, Wash., USA). The percentage inhibition for each well was calculated and the IC50 value was calculated from the concentration-response curve generated for each test compound.

Series [2] concerns Aspergillus fumigatus isolates. Briefly: Broth microdilution assay of planktonic fungal growth (modified EUCAST). The conditions noted are these: read-out: MIC75. The class given is cell-based. The protocol: This assay was conducted using a modified method published by EUCAST (Rodriguez-Tudela et al., 2008). Spores of Aspergillus fumigatus (NCPF2010, NCPF7010 (Methionine 220 mutation), NCPF7099 (Glycine G54 mutation) from Public Health England, Wiltshire; TR34/L98H mutants from St Louis Hospital, Paris, France) were cultured in Sabouraud dextrose agar for 3 days. A stock spore suspension was prepared from a Sabouraud dextrose agar culture by washing with PBS-tween (10 mL; PBS containing 0.05% Tween-20, 100 U/mL Penicillin and 100 U/mL Streptomycin). The spore count was assessed using a Neubauer haemocytometer and then adjusted to 10^6 spores/mL with PBS. A working suspension of spores (2×10^5 spores/mL) was prepared in filter sterilised, BSA MOPS RPMI-1640 (50 mL; RPMI-1640 containing 2 mM L-glutamine, 0.5% BSA, 2% glucose, 0.165 M MOPS, buffered to pH 7 with NaOH). For the assay, BSA MOPS RPMI-1640 (50 μL/well) was added throughout the 384-well plate (Catalogue number 353962, BD Falcon, Oxford, UK) first. Test compounds (0.5 μL DMSO solution) were then added in quadruplicate using an Integra VIAFLO 96 (Integra, Zizers, Switzerland), and mixed well using a plate mixer. Subsequently 50 μL of the working spore suspension prepared above was added to all wells except non-spore control wells. For non-spore control wells, BSA MOPS-RPMI solution (50 μL/well) was added instead. The plate was covered with a plastic lid, and incubated (35° C. with ambient air) for 48 hr. The OD of each well at 530 nm was determined using a multi-scanner (Clariostar: BMG, Buckinghamshire, UK). The percentage inhibition for each well was calculated and the MIC50, MIC75 and MIC90 values were calculated from the concentration-response curve generated for each test compound.
A general note: Dilution methods test growth across graded concentrations, often in twofold steps.

Series [3] relates to Aspergillus fumigatus isolates. The series is described as above. It counts as cell-based. To be noted: isolate NCPF7100, broth microdilution, read-out: MIC75.
Another series concerns BEAS2B cells. Briefly: Cell viability: resazurin assay. The conditions noted are these: n = 1-5. The class given is cell-based, human. As to the method:
as §1
(In general: Resazurin is reduced to fluorescent resorufin, in cell work by metabolically active cells.)

Series [4] concerns Aspergillus fumigatus (NCPF2010). Briefly: Resazurin-microtitre assay of planktonic fungal growth. The class given is cell-based. As to the method:
This assay was conducted using a modified, published method (Monteiro et al., 2012). Spores of Aspergillus fumigatus (NCPF2010, Public Health England, Wiltshire) were cultured in Sabouraud dextrose agar for 3 days. A stock spore suspension was prepared from a Sabouraud dextrose agar culture by washing with PBS-tween (10 mL; PBS containing 0.05% Tween-20, 100 U/mL Penicillin and 100 U/mL Streptomycin). The spore count was assessed using a Neubauer haemocytometer and, using PBS, adjusted to 10^6 spores/mL. A working suspension of spores (10^4 spores/mL) was prepared in filter sterilised MOPS RPMI-1640 (50 mL; RPMI-1640 containing 2 mM L-glutamine, 2% glucose and 0.165 M MOPS, buffered to pH 7 with NaOH). Resazurin sodium salt (100 μL of 1% solution; Sigma-Aldrich, Dorset, UK) was added to the spore suspension and mixed well. The spore suspension-resazurin mixture (100 μL/well) was added to 384-well plates (Catalogue number 353962, BD Falcon, Oxford, UK). Simultaneously, test compounds (0.5 μL DMSO solution) were added to 100 μL of the spore-resazurin mixture in quadruplicate to provide a final DMSO solution of 0.5% using an Integra VIAFLO 96 (Intergra, Zizers, Switzerland). For non-spore control wells, MOPS-RPMI-resazurin solution (100 μL) was added instead of the spore-resazurin mixture. The plate was covered with a Breathe Easier membrane (Catalogue No Z763624, Sigma-Aldrich, Dorset, UK), and incubated (35° C., 5% CO2) until fluorescence in the inoculated wells was double that of the control wells (around 24 hr). The fluorescence of each well (545 nm (excitation)/590 nm (emission), gain 800, focal height 5.5 mm) was determined using a multi-scanner (Clariostar: BMG, Buckinghamshire, UK). The percentage inhibition for each well was calculated and the MIC50, MIC75 and MIC90 values were calculated from the concentration-response curve generated for each test compound.

Converted amounts (≈) assume the structure as drawn. Like-named read-outs stand apart in the source and are kept apart here.

One may read the CC50 as the concentration that lowers cell viability or growth by half. A lower CC50 goes with greater toxicity to the cells. By MIC50 is commonly meant an inhibitory concentration at the 50% level, which refers to growth in some studies and to a panel of isolates in others. High values mean weaker potency, low ones greater potency.

In turn, `[2H]c1c([2H])c(NC(=O)c2ccc(N3CCN(c4ccc(OC[C@@H]5CO[C@@](Cn6cncn6)(c6ccc(F)cc6F)C5)c(C)c4)CC3)cc2)c([2H])c([2H])c1F` [Compound (I)•4[^2H], 4-(4-(4-(((3R,5R)-5-((1H-1,2,4-triazol-1-yl)methyl)-5-(2,4-difluorophenyl)tetrahydrofuran-3-yl)methoxy)-3-methylphenyl)piperazin-1-yl)-N-(4-fluorophenyl-2,3,5,6-d4)benzamide] came in with a 50% cytotoxic concentration (CC50) at 1 day in series [1] of more than 14600 nM. The MIC50 with Aspergillus fumigatus is 0.00315 µM (≈ 0.00216 µg/mL). Besides, the MIC in series [2] (Aspergillus fumigatus) was found to be 0.07 µM (≈ 0.0481 µg/mL); in series [2] (Aspergillus fumigatus, isolate NCPF2010, broth microdilution), 0.0147 µM (≈ 0.0101 µg/mL); in series [2] (Aspergillus fumigatus, isolate NCPF7099, broth microdilution), 0.0137 µM (≈ 0.00941 µg/mL); in series [3] (Aspergillus fumigatus) it was 0.0286 µM (≈ 0.0196 µg/mL).
Consider `C[C@@H]1[C@H](O)[C@@H](C)/C=C/C=C/C=C/C=C/C=C/C=C/C=C/[C@H](O[C@@H]2O[C@H](C)[C@@H](O)[C@H](N)[C@@H]2O)C[C@@H]2O[C@](O)(C[C@@H](O)C[C@@H](O)[C@H](O)CC[C@@H](O)C[C@@H](O)CC(=O)O[C@H]1C)C[C@H](O)[C@H]2C(=O)O` [Amphotericin B], for which the CC50 in the series on BEAS2B cells was determined as 977 nM. In addition, the “Planktonic fungal growth MIC50” value in series [4] came out at 0.0285 µM. Further, in series [4], the “Planktonic fungal growth MIC75” value was 0.0644 µM. For the same compound, the MIC in series [2] (isolate L98H, broth microdilution) was 0.209 µM (≈ 0.193 µg/mL); in series [2] (isolate NCPF2010, broth microdilution), 0.382 µM (≈ 0.353 µg/mL); in series [2] (isolate NCPF7099, broth microdilution) it was 0.365 µM (≈ 0.337 µg/mL); in series [3] it was more than 1.08 µM.

For the origin of these results see US20210238169A1, “PROCESS FOR PREPARING A COMPOUND OF FORMULA (XIII)” (PULMOCIDE LIMITED, priority 2014, published 2021).
